The record followed here is patent US6989435B2, “Compounds and methods to inhibit or augment an inflammatory response” (Cambridge University Technical Services Ltd., priority 1997, dated 2006).

The subject of data set [1] is trypsin. The data set is described as follows: Stability against enzymatic destruction. Format: in vitro ADME. The note with it: 5 units trypsin for 2 hrs at 37° C. How it is done:
(§1) For example, to prepare a peptide 3 derivative, peptide 3(3-12)[MCP-1] was modified according to Jameson et al. (Nature, 368, 744 (1994)), which yielded CRD-Cys13leu4ile11peptide 3[MCP-1] (FIG. 4). CRD-Cys13eu4ile11peptide 3[MCP-1], which had very similar properties to peptide 3(1-12)[MCP-1] […] CRD-Cys13leu4ile11peptide 3[MCP-1] was also resistant to hydrolysis in vivo and allowed therapeutically useful plasma concentrations to be achieved (>10 μM 24 hours after a single intraperitoneal dose of 1 mg of CRD-Cys13leu4ile11peptide 3[MCP-1] in 250 μl saline).

Data set [2] can be described thus: Stability against acid hydrolysis. Format: physicochemical. As to conditions: pH 2.0 for 2 hrs at 37° C. The protocol:
as §1

The nature of data set [3]: Plasma concentration after a single intraperitoneal dose. In kind it is in vivo. The note with it: ip, 24 hours after a single intraperitoneal dose of 1 mg in 250 μl saline. How it is done: as §1

SMILES strings stand for the structures. Positions of bridges follow the written chain, without caps; N, C: chain ends. Non-standard residues stand in square brackets, D forms with d. Residues, ends and D or L forms follow the SMILES beside them. ξ: configuration not given here. ξI = CCC(C)C(N)C(=O)O

With `CCC(C)C1NC(=O)[C@@H](CCC(N)=O)NC(=O)[C@H](N)CSSC[C@H](C(=O)O)NC(=O)[C@@H](CC(C)C)NC(=O)[C@@H](CC(=O)O)NC(=O)[C@H]2CCCN2C(=O)[C@@H](CCCCN)NC(=O)[C@@H](CCC(N)=O)NC(=O)[C@@H](CCCCN)NC(=O)[C@@H](Cc2c[nH]c3ccccc23)NC1=O` (stereo partly drawn) [CRD-Cys13Leu4ile11peptide 3] (H-[dC][dQ][ξI][dW][dK][dQ][dK][dP][dD][dL][dC]-OH; disulfide 1-11; N-terminus and C-terminus assumed), the “stability against enzymatic destruction” value in data set [1] was “stable”. In data set [2], the “degradation by acid hydrolysis” value was < 10%. Moreover, the level at time molar at 24 h in data set [3] is > 10 µM.
